These results are taken from patent US20250090564A1, “BIOACTIVES AND THEIR USES” (AREPA IP LIMITED, priority 2022, published 2025).

The conditions of series [1]: in vivo; cited from earlier work.
The target in series [2] is T1, MAO-A (Homo sapiens, UniProt P21397).
T1 sequence (P21397 1-527): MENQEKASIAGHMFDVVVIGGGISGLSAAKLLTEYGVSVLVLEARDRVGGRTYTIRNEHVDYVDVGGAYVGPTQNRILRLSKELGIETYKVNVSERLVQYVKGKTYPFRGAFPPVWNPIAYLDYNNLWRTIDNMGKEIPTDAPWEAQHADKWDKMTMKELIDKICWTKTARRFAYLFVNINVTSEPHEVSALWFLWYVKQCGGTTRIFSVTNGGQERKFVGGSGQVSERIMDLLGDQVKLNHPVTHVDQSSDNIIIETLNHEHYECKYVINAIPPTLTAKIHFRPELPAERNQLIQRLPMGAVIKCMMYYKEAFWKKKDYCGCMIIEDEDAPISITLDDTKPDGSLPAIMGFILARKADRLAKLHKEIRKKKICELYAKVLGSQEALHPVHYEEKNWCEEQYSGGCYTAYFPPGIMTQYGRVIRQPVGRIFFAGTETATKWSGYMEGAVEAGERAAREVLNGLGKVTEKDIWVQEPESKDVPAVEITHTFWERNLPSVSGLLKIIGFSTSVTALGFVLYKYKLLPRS
The experiment in a line: MAO-Glo assay kit, MAO-A. The class given is biochemical. Particulars: dose response curve, 1 h room temperature. Here is the method:
(§1) Synthetic sarmentosin (BOC Sciences; Cat. No. B2703-149954) was diluted in PBS for the MAO inhibition assays. […] Briefly, samples were combined with the kit's luminogenic MAO substrate solution and human enzyme (MAO-A or MAO-B at a final concentration of 20 μg/mL) and incubated at room temperature for 1 h. Following incubation, the luciferin detection reagent were added to each sample and the change in luminescence was measured at room temperature over 40 min in a FLUOstar Omega plate reader (BMG FluoStar Optima, Alphatech Systems, Auckland, New Zealand). […] All samples were analysed in triplicate on each plate.

For series [3], the target named is T2, human enzyme MAO-B (Homo sapiens, UniProt P27338).
T2 sequence (P27338 1-520): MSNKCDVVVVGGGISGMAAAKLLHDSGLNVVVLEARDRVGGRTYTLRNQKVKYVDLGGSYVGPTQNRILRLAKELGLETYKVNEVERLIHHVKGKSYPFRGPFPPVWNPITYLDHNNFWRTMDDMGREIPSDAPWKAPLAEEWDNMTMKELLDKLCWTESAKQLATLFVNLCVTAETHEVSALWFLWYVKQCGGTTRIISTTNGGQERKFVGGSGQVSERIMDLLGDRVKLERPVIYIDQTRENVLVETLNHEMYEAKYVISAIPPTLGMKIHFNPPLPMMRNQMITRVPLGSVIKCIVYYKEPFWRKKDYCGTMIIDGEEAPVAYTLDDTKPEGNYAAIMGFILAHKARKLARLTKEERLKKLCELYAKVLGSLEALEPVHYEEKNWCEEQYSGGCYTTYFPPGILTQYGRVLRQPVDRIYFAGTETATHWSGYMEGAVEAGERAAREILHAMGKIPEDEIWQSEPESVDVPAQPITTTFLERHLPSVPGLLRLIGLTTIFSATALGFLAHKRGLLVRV
Nature of the series: MAO-Glo assay kit, MAO-B. The format is biochemical. Particulars: highest concentration tested. Here is the method: as §1

The conditions of series [4]: human, in vivo. Here is the method: Plasma was separated from whole blood collected in lithium heparin tubes from participants by centrifugation at 4000×g for 10 min at 4° C. Plasma (1 mL) was spiked with 30 μL of 50% formic acid and 100 µL of 10 mmol ascorbic acid then stored at −80° C. prior to shipping on dry ice to the Physiological Chemistry laboratory.
The plasma samples (350 μL) were spiked with malvidin 3-O-galactoside and further acidified with phosphoric acid prior to clean up on a SOLAμ™ Solid Phase Extraction plate. Following washing with water and acetic acid, the retained anthocyanins were eluted with methanol: formic acid (95:5), evaporated to dryness then reconstituted in acetonitrile: formic acid: water (5:3:92) prior to analysis by Liquid Chromatography-Mass Spectrometry (LC-MS). Quantifications of individual and total anthocyanins were performed using the internal standard ratio method using MultiQuant software, and all results are reported as cyanidin 3-O-glucoside equivalents. Quantification of sarmentosin was performed using an external reference standard supplied by Stephen Bloor (Callaghan Institute).

Series [5] is described as follows: In vitro digestion of blackcurrant juice concentrate (pepsin/acid, bile salts/pancreatin), LCMS. The class given is in vitro ADME. Here is the method:
Samples were taken at the end of 1st step and at 30 min intervals in the 2nd step to give 6 samples for analysis. The samples will be examined (LCMS) for the level of sarmentosin and sarmentosin esters and compared with the feed material. The two samples were treated as shown below in Table 17 to replicate digestion. [table] Samples taken from the subsequent treatments were stored frozen until required for analysis. The samples were all a similar volume and concentration of original juice. Analysis was performed using LCMS (method described in the earlier work). Samples were prepared in two ways, 1. addition of methanol to precipitate any protein or 2. Direct sampling of neat solution after centrifugation.

In series [6] the target is T3, platelet MAO-B (Homo sapiens, UniProt P27338).
T3 construct: platelets were isolated from whole blood; from tissue; host or cells: platelets isolated from venous blood of human participants
T3 sequence (P27338 1-520): T2 sequence (P27338 1-520)
Nature of the series: Acute sarmentosin pilot study, platelet MAO-B activity (Example 10). The format is in vivo. Particulars: for platelet MAO-B activity compared with baseline (0 h): 2 h after consumption; for platelet MAO-B activity compared with baseline: 4 h after consumption. Here is the method: To determine the efficacy of sarmentosin in temporally inhibiting platelet MAO-B activity, we conducted a randomized, placebo-controlled crossover study. Human participants completed three treatment conditions (placebo, 42 mg sarmentosin, and 84 mg sarmentosin), with each trial day separated by at least 48 h.
Five healthy male adults aged between 25 and 36 years old were enrolled in this study. Participants were randomly allocated one of the three trial treatment beverages. All participants completed all three treatment arms of the study, and data from all participants were included in the study analysis. Enrolled participants were required to take part in three trial days where they consumed their allocated sarmentosin beverages or the placebo. Participants adhered to the same dietary restrictions and consumed the same standardized breakfast as previously described in the intervention study. A venous blood sample was collected at the beginning of each trial day, and then, participants were given their treatment beverage to consume immediately. […] Water was provided ad libitum during the trial day, and participants were seated in the clinical trial facility between venous blood collection time points.
Blackcurrant juice previously confirmed to contain sarmentosin was diluted 1:1 with RO-purified H2O and slowly applied to a column (10 cm diameter×125 cm height) filled with Diaion HP20 resin (Mitsubishi Chemical Industries, Japan). The eluant was collected until it was determined that most of sarmentosin had eluted and was quantified as described previously. Sarmentosin fractions were combined and concentrated using a rotary evaporator, and the resulting sarmentosin-rich fraction was then sterile filtered (Millipore Stericup (0.22 μM), Sigma-Aldrich).
Participants consumed a 250 mL beverage containing 42 and 84 mg total sarmentosin, similar to that present in one and two servings, respectively, of a commercial BC juice (Arepa Performance). Sucrose, BC flavouring, and coloring were added to the beverages to blind for taste and appearance. The placebo beverage was matched for sucrose, contained the same volume of added BC flavouring and coloring produced by Sensient Technologies (Auckland, New Zealand) as the sarmentosin beverages, and diluted to 250 mL to match for sweetness, appearance, and flavor.

Series [7] deals with T4, MAO-B (Sus scrofa, UniProt Q6PLK3).
T4 sequence (Q6PLK3 2-520): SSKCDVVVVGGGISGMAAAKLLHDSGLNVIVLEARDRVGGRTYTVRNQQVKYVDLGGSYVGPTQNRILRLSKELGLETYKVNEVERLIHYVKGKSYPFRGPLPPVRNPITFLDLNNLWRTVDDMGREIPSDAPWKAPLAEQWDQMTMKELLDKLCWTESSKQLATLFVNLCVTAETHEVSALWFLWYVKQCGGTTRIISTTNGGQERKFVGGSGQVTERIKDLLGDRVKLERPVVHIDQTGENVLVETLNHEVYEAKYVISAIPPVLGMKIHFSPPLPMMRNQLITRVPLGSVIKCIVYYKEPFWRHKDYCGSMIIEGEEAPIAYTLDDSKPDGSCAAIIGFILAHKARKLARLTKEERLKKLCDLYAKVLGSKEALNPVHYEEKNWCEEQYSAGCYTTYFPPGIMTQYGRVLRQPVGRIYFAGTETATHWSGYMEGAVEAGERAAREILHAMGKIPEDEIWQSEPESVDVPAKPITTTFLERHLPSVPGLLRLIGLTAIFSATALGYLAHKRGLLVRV
Nature of the series: S9 porcine liver microsome fraction assay, kynuramine to 4HQ by LCMS. Particulars: qualitative statement.
Experimental: We used a porcine S9 liver microsome fraction as the source of the MAO-A and MAO-B enzymes.
The S9 porcine fraction was mixed with a specific MAO substrate (kynuramine) and mixed with the test sample and buffer. After 1 hr at 37° C. the reaction was halted by cooling and addition of 2N NaOH and acetonitrile. The centrifuged sample was then analysed using LCMS and the level of 4-quinolol (4HQ) product measured.
Samples were prepared in a 6-well plate (deep well format with 1.1 ml strip tubes). The assay was performed by diluting the crude S9 fraction with buffer (PBS, PH 7.4, diluted 1 in 5, 150 μl) and adding the test sample dissolved in buffer (75 ul). An aliquot of kynuramine was added (10 ul of 1 mg/ml) and the plate was placed in a 37 C water bath for 1 hr. The plate was cooled in ice water before addition of 20 ul 2N NaOH followed by 250 μl acetonitrile. The individual strip tubes were centrifuged, and samples taken from each for LCMS analysis.
The LCMS analysis was performed using a Cyano HPLC column eluted with 0.1% formic in water and acetonitrile. The LC run was isocratic mode (40% Acetonitrile) and the relative levels of 4 hydroxy quinoline (4HQ) and kynuramine determined from peak areas. […] Kynuramine is converted to 4HQ by the MAO-B enzyme.
Various juice samples, concentrates, powders and whole fruit were tested. […]

In series [8] the target is T1, MAO-A. More on the design: purchased Sigma-Aldrich MAK295/296. The following applies: reversible inhibitor; cited from earlier work.
Series [9] relates to MAO-A and B. The following applies: irreversible, non-selective inhibitor; cited from earlier work.

Read-outs that look alike come from different tables or passages of the source.

For `O=C(NCCN1CCOCC1)c1ccc(Cl)cc1` [Moclobemide], the “time to reach peak concentrations” value in series [1] is reported as “approximately 1 hours”.
For `N#C/C(=C\CO[C@@H]1O[C@H](CO)[C@@H](O)[C@H](O)[C@H]1O)CO` [sarmentosin, 4-(beta-D-glucopyranosyloxy)-2-(hydroxymethyl-2-butenenitrile)], the IC50 in series [2] came out at 3.55 µM. The same compound returned an inhibition at 250 µM in series [3] of 32%. In series [4], the “time of peak concentrations of sarmentosin in plasma” value was 120 min. Further, in series [5], the “concentration after in vitro digestion steps” value was “increase” and the “effect of final heating step (90 C. for 10 min) after digestion” value is on record as “some degradation”. Also, in series [6] (42 mg sarmentosin), the “platelet MAO-B activity compared with baseline (0 h)” value is recorded as “similarly inhibited platelet MAO-B activity” and the “platelet MAO-B activity compared with baseline” value was “MAO-B activity comparable to baseline”. Also, in series [6] (84 mg sarmentosin), the “platelet MAO-B activity compared with baseline (0 h)” value is listed as “similarly inhibited platelet MAO-B activity” and the “platelet MAO-B activity compared with baseline” value is reported as “MAO-B activity comparable to baseline”. Also, in series [7], the “MAO inhibition activity in S9-LCMS bioassay (level of 4HQ)” value is reported as “the same activity”.
Regarding `Cc1cccc(N2CC(CO)OC2=O)c1` (centres unmarked) [toloxatone], in series [8], the “duration of MAO-A inhibition before activity returns to baseline” value was “six”.
Turning to `NNCCc1ccccc1` [Phenelzine], in series [9], the “duration of inhibition of MAO-A and B” value is recorded as “up to three”.
Regarding nigrumin-p-coumarate, in [5] (esters: steps 3 through 5, sarmentosin: steps 3 and 4, FIGS. 32 and 33), the “concentration after in vitro digestion steps” value is listed as “decrease”.
